Measured values reported in PubChem BioAssay (NCI).
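Tested at 5 concentrations; 48 h exposure; 96-well plates; endpoints linearly interpolated, else capped at highest concentration. TGI marks complete inhibition of growth.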 Where a SMILES comes first, the peptide text is derived from it. [ ]: non-standard residue; d: D form. The star is where a group is joined. Cbz = O=C(OCc1ccccc1)*; Boc = CC(C)(C)OC(=O)*; Aib = CC(C)(N)C(=O)O; OBn = c1ccc(CO*)cc1; OtBu = CC(C)(C)O*; βAla = NCCC(=O)O

How the values were obtained:
Assay in all cases: NCI anticancer screen, dose series, 48 h
A498 renal = system: A498 renal
NCI-H460 lung = system: NCI-H460 lung
NCI-H23 lung = system: NCI-H23 lung
U251 CNS = system: U251 CNS
MOLT-4 leukemia = system: MOLT-4 leukemia
EKVX NSCLC = system: EKVX NSCLC
A549 NSCLC = system: A549 NSCLC
TK-10 renal = system: TK-10 renal
K-562 leukemia = system: K-562 leukemia
HOP-62 NSCLC = system: HOP-62 NSCLC

| Structure (SMILES) | TGI (A498 renal) [µM] | TGI (NCI-H460 lung) [µM] | TGI (NCI-H23 lung) [µM] | TGI (U251 CNS) [µM] | TGI (MOLT-4 leukemia) [µM] | TGI (EKVX NSCLC) [µM] | TGI (A549 NSCLC) [µM] | TGI (TK-10 renal) [µM] | TGI (K-562 leukemia) [µM] | TGI (HOP-62 NSCLC) [µM] |
| --- | --- | --- | --- | --- | --- | --- | --- | --- | --- | --- |
| O=C(O)c1ccccc1/C=N\NC1=NCCCCN1 | > 100 | > 100 | > 100 | > 100 | > 100 | > 100 | > 100 | > 100 | > 100 | > 100 |
| CCOP(=O)(OCC)C(Nc1ccc(F)cc1)c1cccc([N+](=O)[O-])c1 (stereo not given) | > 100 | > 100 | > 100 | > 100 | > 100 | > 100 | > 100 | > 100 | > 100 | > 100 |
| O=C1C=CC(=O)c2ncccc21 | 27.4 | 17.5 | 23.6 | 17 | > 24.1 | 9.86 | 28.8 | 17.4 | > 24.7 | 28.6 |
| CC1(C)[C@@H]2C[C@H]1c1cnc(-c3ccccn3)cc1C2[C@@H]1c2cc(-c3ccccn3)ncc2[C@@H]2C[C@H]1C2(C)C (stereo not given in full) | > 100 | > 100 | > 100 | > 100 | > 100 | > 100 | > 100 | 75.1 | > 100 | > 100 |
| COC(=O)C(COC(=O)/C=C/c1ccc(OC(C)=O)c(OC(C)=O)c1)OC(=O)/C=C/c1ccc(OC(C)=O)c(OC(C)=O)c1 (stereo not given) | 43.1 | 57.2 | 71.8 | 20.4 | 7.2 | 36.9 | 41.6 | 32.8 | 31.2 | 58.2 |
| CCCCSc1n/c(=C\c2ccc(N(C)C)cc2)c2nnnn12 | > 100 | > 100 | > 100 | > 100 | > 100 | > 100 | > 100 | > 100 | > 100 | > 100 |
| O=C(NCCO)c1ccc(Cl)cc1 | > 100 | > 100 | > 100 | > 100 | > 100 | > 100 | > 100 | > 100 | > 100 | > 100 |
| CC(C)(C)OC(=O)CC(NC(=O)OC(C)(C)C)C(=O)NC(CCCCNC(=O)OCc1ccccc1)C(=O)NC(C)(C)C(=O)NCCC(=O)OCc1ccccc1 (stereo not given) (Boc-D(OtBu)K(Cbz)[Aib][βAla]-OBn; configuration not given here) | > 100 | > 100 | > 100 | > 100 | > 100 | > 100 | > 100 | > 100 | > 100 | > 100 |
| CCN(CC)CCCNc1ccc2nnn3c4ccc(O)cc4c(=O)c1c23 | 24.3 | 9.13 | 23.5 | 7.61 | 18.5 | 29.8 | 10.3 | 17.6 | 53.3 | 22.6 |
| COc1cc2ccnc3c2c(c1O)N(C)C=C3 | 23.4 | > 66 | 37.5 | > 100 | > 100 | 33.4 | 50.3 | 32.9 | > 100 | 46.4 |
| Cc1ccc2c(c1)OC1Nc3ccccc3C1=C2O (stereo not given) | 45.5 | 64.3 | 74.6 | 57.5 | > 100 | 86.9 | > 100 | 78.3 | > 100 | > 100 |
| CCCCN(c1ccccc1)c1ncnc2c1cnn2C | 71.1 | > 100 | > 100 | > 100 | 40.8 | > 100 | > 100 | > 100 | > 100 | > 100 |
| COc1ccc(CNc2nc(NCc3ccc(OC)cc3)nc(N3CCOCC3)n2)cc1 | 93.8 | > 100 | 28.7 | > 100 | 10.9 | > 100 | > 100 | 28.8 | 26.2 | > 100 |
